Measured values from patent US8765959B2, “Piperidine derivatives” (Boehringer Ingelheim International GmbH, priority 2011, dated 2014).

Target: T1, human ACC2 (Homo sapiens, UniProt O00763)
T1 construct: made in house; host or cells: insect cells (baculoviral expression system)
Experiment: ACC2 assay, spectrophotometric 384 well assay (NADH-linked, coupled lactate dehydrogenase/pyruvate kinase)
Type: biochemical
Details: not given
Procedure: Spectrophotometric 384 Well Assay
Malonyl CoA formation by acetyl CoA carboxylases is stoichometrically linked to the consumption of ATP. ACC2 activity is measured in a NADH-linked kinetic method measuring ADP generated during the ACC reaction using a coupled lactate dehydrogenase/pyruvate kinase reaction.
For biological testing, a human ACC2 construct which lacks the 128 amino acids at the N-terminus for increased solubility (nt 385-6966 in Genbank entry AJ575592) is cloned. The protein is then expressed in insect cells using a baculoviral expression system. Protein purification is performed by anion exchange.
All compounds are dissolved in dimethyl sulfoxide (DMSO) to a concentration of 10 mM.
Assay reactions are then carried out in 384-well plates, with hACC2 in an appropriate dilution and at final assay concentrations (f.c.) of 100 mM Tris (pH 7.5), 10 mM trisodium citrate, 25 mM KHCO3, 10 mM MgCl2, 0.5 mg/ml BSA, 3.75 mM reduced L-glutathione, 15 U/ml lactate dehydrogenase, 0.5 mM phosphoenolpyruvate, 15 U/ml pyruvate kinase, compounds at different concentrations at final DMSO concentrations of 1%.
The enzymatic reaction is then started by addition of a mixture of NADH, acetyl Coenzyme A (both 200 μM f.c.) and ATP (500 uM f.c.). The decrease of the optical density (slope S) is then determined at 25° C. at a wavelength of 340 nm over 15 minutes in a spectrophotometric reader.
Each assay microtiter plate contains wells with vehicle instead of compound as controls for the non-inhibited enzyme (100% CTL; ‘HIGH’) and wells without acetyl-CoA as controls for non-specific NADH degradation (0% CTL; ‘LOW’).
The slope S is used for calculation of % CTL=(S(compound)−S(‘LOW’))/(S(‘HIGH’)−S(‘LOW’))*100. Compounds will give values between 100% CTL (no inhibition) and 0% CTL (complete inhibition).
For IC50 value determination, the sample slope in the presence of the test compound after subtraction of the low controls (S(compound)−S(‘LOW’)) are used.
An IC50 value is derived from the compound slopes at different dosages after subtraction of the low controls (S(compound)−S(‘LOW’)) by non-linear regression curve fitting (equation y=(A+((B−A)/(1+((C/x)^D))))).

T1 sequence (O00763 129-2458 limits assumed): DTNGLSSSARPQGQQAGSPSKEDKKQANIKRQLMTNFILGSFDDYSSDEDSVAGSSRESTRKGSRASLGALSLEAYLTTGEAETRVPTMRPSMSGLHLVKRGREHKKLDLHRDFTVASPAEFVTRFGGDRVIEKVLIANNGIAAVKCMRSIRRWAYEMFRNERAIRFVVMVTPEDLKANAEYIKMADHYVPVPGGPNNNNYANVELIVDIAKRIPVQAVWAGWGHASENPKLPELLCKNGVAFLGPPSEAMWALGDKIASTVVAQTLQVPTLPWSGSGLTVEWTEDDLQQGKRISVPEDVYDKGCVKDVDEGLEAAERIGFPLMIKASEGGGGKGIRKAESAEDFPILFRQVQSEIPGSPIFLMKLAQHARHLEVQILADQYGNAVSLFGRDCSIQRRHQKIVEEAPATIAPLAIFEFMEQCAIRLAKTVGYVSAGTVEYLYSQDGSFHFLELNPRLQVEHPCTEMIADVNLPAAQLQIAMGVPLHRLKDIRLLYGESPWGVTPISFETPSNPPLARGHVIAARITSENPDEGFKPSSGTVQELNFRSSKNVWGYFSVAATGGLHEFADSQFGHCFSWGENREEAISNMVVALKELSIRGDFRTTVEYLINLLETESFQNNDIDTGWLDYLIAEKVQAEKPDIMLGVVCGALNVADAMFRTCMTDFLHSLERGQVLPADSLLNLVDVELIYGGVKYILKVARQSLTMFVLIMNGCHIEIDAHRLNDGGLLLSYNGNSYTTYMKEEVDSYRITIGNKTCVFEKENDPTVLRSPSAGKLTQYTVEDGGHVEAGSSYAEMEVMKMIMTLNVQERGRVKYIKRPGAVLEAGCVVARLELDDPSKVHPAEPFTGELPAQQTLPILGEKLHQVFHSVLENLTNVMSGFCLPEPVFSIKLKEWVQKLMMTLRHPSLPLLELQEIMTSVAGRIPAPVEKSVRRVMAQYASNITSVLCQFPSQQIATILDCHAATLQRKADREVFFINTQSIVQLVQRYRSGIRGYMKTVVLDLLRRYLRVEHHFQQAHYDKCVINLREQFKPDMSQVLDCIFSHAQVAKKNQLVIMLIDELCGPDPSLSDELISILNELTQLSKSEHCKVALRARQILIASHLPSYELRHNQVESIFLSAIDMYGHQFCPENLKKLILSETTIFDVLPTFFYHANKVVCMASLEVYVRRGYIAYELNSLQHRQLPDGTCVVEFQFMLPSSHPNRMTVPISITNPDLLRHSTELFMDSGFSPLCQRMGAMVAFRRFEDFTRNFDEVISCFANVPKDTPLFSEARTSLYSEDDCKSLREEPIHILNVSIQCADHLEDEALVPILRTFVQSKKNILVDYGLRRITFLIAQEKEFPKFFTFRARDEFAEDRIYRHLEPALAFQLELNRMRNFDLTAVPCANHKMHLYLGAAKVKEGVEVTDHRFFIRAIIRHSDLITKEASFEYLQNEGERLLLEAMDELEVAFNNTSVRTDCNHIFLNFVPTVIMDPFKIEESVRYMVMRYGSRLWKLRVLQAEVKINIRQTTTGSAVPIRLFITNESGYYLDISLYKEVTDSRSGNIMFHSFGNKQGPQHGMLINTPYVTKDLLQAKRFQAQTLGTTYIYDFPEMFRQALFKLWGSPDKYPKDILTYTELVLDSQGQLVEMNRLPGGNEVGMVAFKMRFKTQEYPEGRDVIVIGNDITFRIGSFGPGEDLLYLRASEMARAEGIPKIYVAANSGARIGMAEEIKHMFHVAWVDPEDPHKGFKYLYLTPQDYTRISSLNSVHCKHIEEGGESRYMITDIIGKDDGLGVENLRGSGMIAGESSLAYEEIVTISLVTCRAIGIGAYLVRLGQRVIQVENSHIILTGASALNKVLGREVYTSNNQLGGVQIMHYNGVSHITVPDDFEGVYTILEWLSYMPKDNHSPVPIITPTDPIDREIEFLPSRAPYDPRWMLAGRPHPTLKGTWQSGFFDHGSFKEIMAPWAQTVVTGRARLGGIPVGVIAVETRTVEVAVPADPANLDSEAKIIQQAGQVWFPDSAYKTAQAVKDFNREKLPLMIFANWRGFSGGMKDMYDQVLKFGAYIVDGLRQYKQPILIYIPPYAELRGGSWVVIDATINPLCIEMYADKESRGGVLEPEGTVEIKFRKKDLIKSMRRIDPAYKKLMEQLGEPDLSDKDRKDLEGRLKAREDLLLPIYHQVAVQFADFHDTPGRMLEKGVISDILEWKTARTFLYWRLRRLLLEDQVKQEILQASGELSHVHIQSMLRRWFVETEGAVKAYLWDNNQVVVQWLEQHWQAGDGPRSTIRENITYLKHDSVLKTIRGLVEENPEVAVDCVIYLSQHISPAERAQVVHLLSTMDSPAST

SMILES | IC50
CCOc1ccc(C2CCN(c3ccc([C@H](C)NC(=O)CF)cc3)CC2)cc1 [Example 3.8] | 440 nM

Same assay, conditions: ACC2 assay; human ACC2 construct lacking 128 N-terminal amino acids; 25° C., 340 nm, 15 minutes; read-out: IC50

IC50 | SMILES
4150 nM | CCOc1ccc(C2CCN(c3ccc([C@H](C)NC(=O)C4(C#N)CC4)cc3)CC2)cc1 [Example 2.1, (S)-1-Cyano-cyclopropanecarboxylic acid (1-{4-[4-(4-ethoxy-phenyl)-piperidin-1-yl]-phenyl}-ethyl)-amide]
690 nM | CCOc1ccc(C2CCN(c3ccc([C@H](C)NC(=O)c4cncs4)cc3)CC2)cc1 [Example 2.2]
1210 nM | CCOc1ccc(C2CCN(c3ccc([C@H](C)NC(=O)CSC)cc3)CC2)cc1 [Example 2.3]
710 nM | CCOc1ccc(C2CCN(c3ccc([C@H](C)NC(=O)CC)cc3)CC2)cc1 [Example 2.4]
6910 nM | CCOc1ccc(C2CCN(c3ccc([C@H](C)NC(=O)COC)cc3)CC2)cc1 [Example 2.5]
110 nM | CCOc1ccc(C2CCN(c3ccc([C@H](C)NC(=O)C(F)(F)F)cc3)CC2)cc1 [Example 2.6]
520 nM | CCOc1ccc(C2CCN(c3ccc([C@H](C)NC(=O)C4(C)CC4)cc3)CC2)cc1 [Example 2.7]
2770 nM | CCOc1ccc(C2CCN(c3ccc([C@H](C)NC(=O)c4coc(NC(C)=O)n4)cc3)CC2)cc1 [Example 3.1, (S)-2-Acetylamino-oxazole-4-carboxylic acid (1-{4-[4-(4-ethoxy-phenyl)-piperidin-1-yl]-phenyl}-ethyl)-amide]
380 nM | CCOc1ccc(C2CCN(c3ccc([C@H](C)NC(=O)C(F)F)cc3)CC2)cc1 [Example 3.2]
760 nM | CCOc1ccc(C2CCN(c3ccc([C@H](C)NC(=O)C(C)F)cc3)CC2)cc1 (stereo partly shown) [Example 3.3]
4880 nM | CCOc1ccc(C2CCN(c3ccc([C@H](C)NC(=O)Cc4cc[nH]c4)cc3)CC2)cc1 [Example 3.4]
4530 nM | CCOc1ccc(C2CCN(c3ccc([C@H](C)NC(=O)c4cncc(NC(C)=O)c4)cc3)CC2)cc1 [Example 3.5]
200 nM | CCOc1ccc(C2CCN(c3ccc([C@H](C)NC(=O)c4sc(NC(C)=O)nc4C)cc3)CC2)cc1 [Example 3.6]
1480 nM | CCOc1ccc(C2CCN(c3ccc([C@H](C)NC(=O)c4csc(NC(C)=O)n4)cc3)CC2)cc1 [Example 3.7]
4980 nM | CCOc1ccc(C2CCN(c3ccc([C@H](C)NC(=O)CO)cc3)CC2)cc1 [Example 3.9]
1980 nM | CCOc1ccc(C2CCN(c3ccc([C@H](C)NC(=O)N(C)CC)cc3)CC2)cc1 [Example 4.1, (S)-3-(1-{4-[4-(4-Ethoxy-phenyl)-piperidin-1-yl]-phenyl}-ethyl)-1-ethyl-1-methyl-urea]
1160 nM | CCOc1ccc(C2CCN(c3ccc([C@H](C)NC(=O)N(C)c4cccnc4)cc3)CC2)cc1 [Example 4.2]
2360 nM | CCOc1ccc(C2CCN(c3ccc([C@H](C)NC(=O)N4CCOCC4)cc3)CC2)cc1 [Example 4.3]
3690 nM | CCOc1ccc(C2CCN(c3ccc([C@H](C)NC(=O)N(CC)CC)cc3)CC2)cc1 [Example 4.4]
2090 nM | CCOc1ccc(C2CCN(c3ccc([C@H](C)NC(=O)OC)cc3)CC2)cc1 [Example 5.1, (S)-(1-{4-[4-(4-Ethoxy-phenyl)-piperidin-1-yl]-phenyl}-ethyl)-carbamic acid methyl ester]
3430 nM | CCOc1ccc(C2CCN(c3ccc([C@H](C)N(C)C(C)=O)cc3)CC2)cc1 [Example 6.1, (S)—N-(1-{4-[4-(4-Ethoxy-phenyl)-piperidin-1-yl]-phenyl}-ethyl)-N-methyl-acetamide]

Second part, the molecule before the results:

SMILES | IC50
CCCOc1ccc(C2CCN(c3ccc([C@H](C)NC(C)=O)cc3)CC2)cc1 [Example 1.1, (S)—N-(1-{4-[4-(4-Propoxy-phenyl)-piperidin-1-yl]-phenyl}-ethyl)-acetamide] | 70 nM
CCOc1ccc(C2CCN(c3ccc([C@H](C)NC(C)=O)cc3)CC2)cc1 [Example 1.2] | 150 nM
CCCOc1ccc(C2CCN(c3ccc([C@H](C)NC(C)=O)cc3)CC2)c(C)c1 [Example 1.3] | 50 nM
CC(=O)N[C@@H](C)c1ccc(N2CCC(c3ccc(OC4CCC4)cc3)CC2)cc1 [Example 1.4] | 230 nM
CC(=O)N[C@@H](C)c1ccc(N2CCC(c3cccc(OCC4CC4)c3)CC2)cc1 [Example 1.5] | 880 nM
CCOc1cccc(C2CCN(c3ccc([C@H](C)NC(C)=O)cc3)CC2)c1 [Example 1.6] | 1120 nM
CC(=O)N[C@@H](C)c1ccc(N2CCC(c3ccc(OCC4CC4(F)F)cc3)CC2)cc1 (stereo partly shown) [Example 1.7] | 90 nM
CCOc1ccc(C2CCN(c3ccc([C@H](C)NC(=O)C4CC4)cc3)CC2)cc1 [Example 1.8] | 680 nM
CC(C)Oc1ccc(C2CCN(c3ccc([C@H](C)NC(=O)N(C)C)cc3)CC2)cc1 [Example 1.9] | 610 nM
CC(C)Oc1ccc(C2CCN(c3ccc([C@H](C)NC(=O)C4CC4)cc3)CC2)cc1 [Example 1.10] | 800 nM
CCOc1ccc(C2CCN(c3ccc([C@H](C)NC(C)=O)cc3)CC2)c(OC)c1 [Example 1.11] | 440 nM
CCOc1ccc(C2CCN(c3ccc([C@H](C)NC(C)=O)cc3)CC2)cn1 [Example 1.12] | 3170 nM
CC(=O)N[C@@H](C)c1ccc(N2CCC(c3cccc(OC4CCC4)c3)CC2)cc1 [Example 1.14] | 450 nM
C[C@H](NC(=O)C1CC1)c1ccc(N2CCC(c3ccc(OCC4CC4)cc3)CC2)cc1 [Example 1.15] | 1850 nM
C[C@H](NC(=O)C1CC1)c1ccc(N2CCC(c3ccc(OC4CCC4)cc3)CC2)cc1 [Example 1.16] | 1240 nM
CCOc1ccc(C2CCN(c3ccc([C@H](C)NC(=O)N(C)C)cc3)CC2)cc1 [Example 1.17] | 820 nM
CCOc1cc(C2CCN(c3ccc([C@H](C)NC(C)=O)cc3)CC2)ccn1 [Example 1.19] | 820 nM
CCCOc1cccc(C2CCN(c3ccc([C@H](C)NC(C)=O)cc3)CC2)c1 [Example 1.20] | 660 nM
CCCOc1ccc(C2CCN(c3ccc([C@H](C)NC(=O)C4CC4)cc3)CC2)cc1 [Example 1.21] | 640 nM
C[C@H](NC(=O)N(C)C)c1ccc(N2CCC(c3ccc(OC4CCC4)cc3)CC2)cc1 [Example 1.22] | 250 nM

SMILES | IC50
C[C@H](NC(=O)N(C)C)c1ccc(N2CCC(c3ccc(OCC4CC4)cc3)CC2)cc1 [Example 1.24] | 540 nM
CC(=O)N[C@@H](C)c1ccc(N2CCC(c3cccc(OC(C)C)c3)CC2)cc1 [Example 1.25] | 370 nM
CCCOc1ccc(C2CCN(c3ccc([C@H](C)NC(=O)N(C)C)cc3)CC2)cc1 [Example 1.26] | 340 nM
COc1ccc(C2CCN(c3ccc([C@H](C)NC(C)=O)cc3)CC2)cc1 [Example 1.27] | 2160 nM
CC(=O)NC(C)c1ccc(N2CCC(c3ccc(OCC4CC4)cc3F)CC2)c(F)c1 (stereo not shown) [Example 1.31] | 150 nM
CCCOc1ccc(C2CCN(c3ccc(C(C)NC(C)=O)cc3F)CC2)cc1 (stereo not shown) [Example 1.32] | 230 nM
CC(=O)NC(C)c1ccc(N2CCC(c3ccc(OC(C)C)cc3)CC2)c(F)c1 (stereo not shown) [Example 1.33] | 460 nM
CCOc1cccc(C2CCN(c3ccc(C(C)NC(C)=O)c(F)c3)CC2)c1 (stereo not shown) [Example 1.41] | 1270 nM
CC(=O)NC(C)c1ccc(N2CCC(c3cccc(OC(C)C)c3)CC2)cc1F (stereo not shown) [Example 1.42] | 1260 nM
CCCOc1ccc(C2CCN(c3ccc(C(C)NC(C)=O)c(F)c3)CC2)c(C)c1 (stereo not shown) [Example 1.44] | 160 nM
CCOc1ccc(C2CCN(c3ccc(C(C)NC(C)=O)c(F)c3)CC2)cc1 (stereo not shown) [Example 1.45] | 350 nM
CC(=O)NC(C)c1ccc(N2CCC(c3ccc(OC(C)C)cc3)CC2)cc1F (stereo not shown) [Example 1.46] | 370 nM
CC(=O)NC(C)c1ccc(N2CCC(c3cccc(OC4CCC4)c3)CC2)cc1F (stereo not shown) [Example 1.47] | 430 nM
CC(=O)NC(C)c1ccc(N2CCC(c3ccc(OCC4CC4)cc3F)CC2)cc1F (stereo not shown) [Example 1.48] | 460 nM
COc1cc(C(C)NC(C)=O)ccc1N1CCC(c2ccc(OC3CCC3)cc2)CC1 (stereo not shown) [Example 1.51] | 4410 nM
CCCOc1ccc(C2CCN(c3ccc(C(C)NC(C)=O)cc3OC)CC2)cc1 (stereo not shown) [Example 1.52] | 4230 nM
CCOc1ccc(C2CCN(c3ccc(CC(C)NC(C)=O)cc3)CC2)cc1 (stereo not shown) [Example 1.60] | 1220 nM
COc1ccc(C2CCN(c3ccc(CC(C)NC(C)=O)cc3)CC2)cc1 (stereo not shown) [Example 1.61] | 4470 nM
CCOc1ccc(C2CCN(c3ccc(CCC(C)NC(C)=O)cc3)CC2)cc1 (stereo not shown) [Example 1.70] | 8470 nM
